Results as given in publication PMC12069340 (Frontiers in Cellular and Infection Microbiology, 2025).
Counter-ions that a name gives are not always drawn.

System: A/PuertoRico/8/1934 (H1N1) virus
Test: microbe, parasite or virus in culture
Format: cell-based, influenza A virus
Details: 20 µM

Compared with `COc1ccc(NS(=O)(=O)c2sc3ccc(Cl)cc3c2C)cc1N1CCNCC1.Cl` [SB271046 HCl], `CCc1ccc(OCc2ccccc2C(=O)Nc2ccc3nc(C)cc(N)c3c2)cc1` [JTC-801] is higher in “NA Inhibition (%)” value: 18.8% for the first, 41.4% for the second.

First: CCCCOc1ccc(C(=O)Nc2ccc(F)cc2F)cc1 [VU 0357121]
Second: CC(C)N(CCC(c1ccccc1)c1cc(CO)ccc1O)C(C)C (centres unmarked) [5-hydroxymethyl Tolterodine]
The “NA Inhibition (%)” value of the first is higher: 29.7% for the first, 6.5% for the second.

First: CN1CCC(c2c[nH]c3ccc(O)cc23)CC1 [BRL-54443]
Second: COc1cc(OC)c(NC(=O)Nc2cc(C)on2)cc1Cl [PNU-120596]
The “NA Inhibition (%)” value of the first is higher: 23.6% for the first, -38.3% for the second.

Compared with `COc1ccccc1N1CCN(CCN(C(=O)C2CCCCC2)c2ccccn2)CC1.O=C(O)/C=C\C(=O)O` [WAY-100635 Maleate], `CN(C)CCC(c1ccc(Br)cc1)c1ccccn1.O=C(O)/C=C\C(=O)O` (centres unmarked) [Brompheniramine hydrogen maleate] is higher in “NA Inhibition (%)” value: 9.1% for the first, 12.4% for the second.

First: O=C(Nc1cccc(Cl)c1)c1ccccn1 [VU 0364770]
Second: Cc1cncc(CN2CCC(=C3c4ccc(Cl)cc4CCc4cccnc43)CC2)c1.O=C(O)/C=C/C(=O)O [Rupatadine Fumarate]
The “NA Inhibition (%)” value of the first is higher: 28.5% for the first, 22.5% for the second.

Going from `CN1CCN(c2nc3ccccc3nc2Cl)CC1` [VUF 10166] to `Cc1cccc(C#Cc2ccccc2)n1` [MPEP], the “NA Inhibition (%)” value rises from 7.6% to 32.6%.

Compared with `CCC1=C[C@@H]2CN3CCc4c([nH]c5ccccc45)[C@@](C(=O)OC)(C2)[C@@H]13` [Catharanthine], `CNCCc1ccccn1.Cl.Cl` [Betahistine 2HCl] is lower in “NA Inhibition (%)” value: 42.3% for the first, 4.8% for the second.

Going from `OC(CN1CCN(c2cccc(Cl)c2)CC1)C(c1ccccc1)c1ccccc1` (centres unmarked) [BRL-15572] to `CN1[C@@H]2CC(O)C[C@H]1[C@@H]1O[C@@H]12` (some centres unmarked) [Scopine], the “NA Inhibition (%)” value falls from 24.4% to -19.4%.

Compared with (-)-MK 801 Maleate, `CC(C)c1cc(-c2ccc(F)c3ccccc23)nc(N)n1` [RS-127445] is lower in “NA Inhibition (%)” value: 26.1% for the first, 20.3% for the second.

Going from `CN1c2ccccc2C(NCCCCCCC(=O)[O-])c2ccc(Cl)cc2S1(=O)=O.[Na+]` (centres unmarked) [Tianeptine sodium] to `O=C(c1ccc(F)cc1)N1CCC[C@H](c2nc(-c3ccc(F)cc3)no2)C1` [ADX-47273], the “NA Inhibition (%)” value rises from 4.5% to 34.4%.

Compared with `CNCC(=O)c1ccc(O)c(O)c1.Cl` [Adrenalone HCl], `Cc1nc(C#Cc2ccnc(Cl)c2)c(C)n1-c1ccc(OC(F)(F)F)cc1` [CTEP (RO4956371)] is higher in “NA Inhibition (%)” value: 6.4% for the first, 31.0% for the second.

Going from `Br.Br.NCCCCCNCC12CC3CC(CC(C3)C1)C2` [IEM 1754 dihydrobroMide] to `O=C(O)CCCN1CCC(O[C@@H](c2ccc(Cl)cc2)c2ccccn2)CC1.O=S(=O)(O)c1ccccc1` [Bepotastine Besilate], the “NA Inhibition (%)” value falls from 23.2% to 21.1%.

Compared with `Cc1cccc([C@H](C)c2cnc[nH]2)c1C` [Dexmedetomidine], L-Adrenaline is lower in “NA Inhibition (%)” value: 21.4 for the first, -38.4 for the second.

With `Cl.Cl.NCCc1c[nH]cn1` [Histamine 2HCl] the “NA Inhibition (%)” value was 2.5.

Same assay, conditions: Influenza A virus, H1N1, U-937, 48 h, read-out: NA Inhibition (%)

First: Cc1ccc(O)c([C@H](CCN(C(C)C)C(C)C)c2ccccc2)c1 [Tolterodine tartrate]
Second: CN(C)CCCN1c2ccccc2CCc2ccc(Cl)cc21 [Clomipramine HCl]
The inhibition at 20 µM of the first is lower: -12% for the first, -11.3% for the second.

Compared with `O=c1n(CCCN2CCN(c3cccc(Cl)c3)CC2)nc2ccccn12` [Trazodone HCl], `CN1CCN(C(=O)c2cc3cc(Cl)ccc3[nH]2)CC1` [JNJ-7777120] is higher in inhibition at 20 µM: -9.8% for the first, 19.7% for the second.

First: CC(C)(C(=O)O)c1ccc(C(O)CCCN2CCC(C(O)(c3ccccc3)c3ccccc3)CC2)cc1 (centres unmarked) [Fexofenadine HCl]
Second: CC(=O)SCC(Cc1ccccc1)C(=O)NCC(=O)OCc1ccccc1 (centres unmarked) [Racecadotril]
The inhibition at 20 µM of the first is higher: -9.9% for the first, -29.5% for the second.

First: COc1cc2c(cc1OC)C(=O)C(CC1CCN(Cc3ccccc3)CC1)C2 (centres unmarked) [Donepezil HCl]
Second: COCCCN1CCC(NC(=O)c2cc(Cl)c(N)c3c2OCC3)CC1 [Prucalopride]
The inhibition at 20 µM of the first is lower: 4.5% for the first, 20.7% for the second.

Compared with `CNC[C@H](O)c1cccc(O)c1` [Phenylephrine HCl], `CNC[C@H](O)c1ccc(O)c(O)c1` [Epinephrine HCl] is higher in inhibition at 20 µM: 4.9% for the first, 7.1% for the second.

Compared with `C[C@]12N[C@H](Cc3ccccc31)c1ccccc12` [MK-801 (Dizocilpine), Dizocilpine], `CNCCCC12CCC(c3ccccc31)c1ccccc12` [Maprotiline HCl] is lower in inhibition at 20 µM: 20.9% for the first, -23.2% for the second.

Compared with `C=CCN1CC[C@]23c4c5ccc(O)c4O[C@H]2C(=O)CC[C@@]3(O)[C@H]1C5` [Naloxone HCl], `CN1[C@@H]2C[C@@H](OC(=O)[C@H](CO)c3ccccc3)C[C@H]1[C@@H]1O[C@@H]12` [Scopolamine HBr] is lower in inhibition at 20 µM: 25.4% for the first, -0.4% for the second.

Work on `COc1cc(NC(=O)c2ccccn2)ccc1Cl` [VU 0361737] yielded an inhibition at 20 µM of 23.5%.

Same assay, conditions: Influenza A virus, H1N1, U-937, 48 h; read-out: NA Inhibition (%)

Going from `CCCCCCCCOc1ccccc1C(=O)Nc1ccc(C(=O)OCC[N+](C)(CC)CC)cc1` [Otilonium Bromide] to `CC[N+](CC)(CC)CCOc1cccc(OCC[N+](CC)(CC)CC)c1OCC[N+](CC)(CC)CC` [Gallamine Triethiodide], the inhibition at 20 µM falls from -2.3% to -9%.

First: CC(NCCc1ccc(O)cc1)C(O)c1ccc(O)cc1 (centres unmarked) [Ritodrine HCl]
Second: CC(COc1ccccc1)N(CCCl)Cc1ccccc1 (centres unmarked) [Phenoxybenzamine HCl]
The inhibition at 20 µM of the first is lower: -20.6% for the first, 95.4% for the second.

Going from `c1ccc2c(CC3=NCCN3)cccc2c1` [Naphazoline HCl] to `O=S(=O)(c1ccccc1)c1cnc2c(N3CCNCC3)cccc2c1` [SB742457], the inhibition at 20 µM rises from -18.7% to 16.8%.

Compared with `CCc1cc2c(cc1CC)CC(NC[C@H](O)c1ccc(O)c3[nH]c(=O)ccc13)C2` [Indacaterol Maleate], `CN1CCC[C@@H]1Cc1c[nH]c2ccc(CCS(=O)(=O)c3ccccc3)cc12` [Eletriptan HBr] is higher in inhibition at 20 µM: -6% for the first, 20.2% for the second.

Compared with `COc1ccccc1N1CCN(CCN2C(=O)CC3(CCCC3)CC2=O)CC1` [BMY 7378], `CN1CCC(=C2c3ccccc3C=Cc3ccccc32)CC1` [Cyproheptadine HCl] is lower in inhibition at 20 µM: 23.8% for the first, 4.6% for the second.

First: C[N+]1(C)[C@@H]2CC[C@H]1C[C@@H](OC(=O)C(O)c1ccccc1)C2 (some centres unmarked) [Homatropine Methylbromide]
Second: CN1[C@@H]2CC[C@H]1C[C@@H](OC(=O)C(CO)c1ccccc1)C2 (some centres unmarked) [Atropine]
The inhibition at 20 µM of the first is lower: -12% for the first, -5.8% for the second.

Compared with `Cc1cccc(C)c1N=C1NCCCS1` [Xylazine HCl], `CCN(CC)CC(=O)Nc1c(C)cccc1C` [Lidocaine] is higher in inhibition at 20 µM: -20% for the first, 5.1% for the second.

Going from `C[N+]1(C)[C@@H]2C[C@@H](OC(=O)C(O)(c3cccs3)c3cccs3)C[C@H]1[C@@H]1O[C@@H]12` [Tiotropium Bromide hydrate] to `O=C(O)c1cccnc1Nc1cccc(C(F)(F)F)c1` [Niflumic acid], the inhibition at 20 µM rises from -34.7% to 23.7%.

`COC(=O)C1=CCCN(C)C1` [Arecoline] gave an inhibition at 20 µM of -10.6%.

System: not listed separately
Test: in vitro
Details: human, Relative Viability (%)

Going from `CN1CCC[C@@H]1CCO[C@](C)(c1ccccc1)c1ccc(Cl)cc1` [Clemastine Fumarate] to `CC(C)(C)c1ccc(C(=O)CCCN2CCC(OC(c3ccccc3)c3ccccc3)CC2)cc1` [Ebastine], the viability at 20 µM rises from 88.5% to 105%.

`Cc1ccccc1C(OCCN(C)C)c1ccccc1` (centres unmarked) [Orphenadrine Citrate] gave a viability at 20 µM of 106%.
